From the OPERA property sets (Mansouri et al. 2018) come the findings set out here.

One may read the logP as a log measure of how a compound divides between an organic and an aqueous phase. A low value points to a more hydrophilic compound. The compound `CC1=Nc2cc(Br)ccc2S(=O)(=O)N1` yielded a lipophilicity (logP) of 1.37.

Turning to `CN(C)C(=O)Nc1cccc(O)c1`, the logP is 0.51.

In the case of `CCOC(=O)CCN1C(=O)C=CC1=O`, the logP is 0.41.

Consider `CCC1C(=O)NC(=O)N(C)C1=O` (stereo unspecified), for which the logP was 0.15.

On to `Nc1ncco1`, for which the log partition coefficient (logP) was -0.18.

`Cc1ccc(C(C)C)c(OC2OC(CO)C(O)C(O)C2O)c1` (stereo unspecified) came in with a lipophilicity (logP) of 1.07.

`CC(C)OCC(O)Cn1ccnc1[N+](=O)[O-]` (stereo unspecified) displayed a logP of 0.51.

Compound `O=NN(CCCl)C(=O)NC1C=CCCC1` (stereo unspecified) registered a log partition coefficient (logP) of 2.45.

`COc1cc(Cc2cnc(N)nc2N)cc(OCc2ccccc2)c1OCc1ccccc1`: the logP amounted to 4.09.

`O=S1(=O)NC(C2CC2)=Nc2cc(Cl)ccc21` gave a logP of 1.98.

`OCC1OC(Oc2ccc(I)cc2)C(O)C(O)C1O` (stereo unspecified): the logP was 0.75.

`CC(=O)OCCOC(=O)c1ccccc1`: the log partition coefficient (logP) is 1.85.

As for `O=S(=O)(Nc1cccc(O)c1)C(F)(F)F`, the log partition coefficient (logP) turned out to be 2.51.

In turn, `COC(=O)C(C#N)=NNc1ccc(Cl)c(C(F)F)c1` displayed a logP of 3.8.

Compound `FC(F)(F)c1nc2cc(Br)c(Br)cc2[nH]1` came in with a logP of 4.15.

Regarding `CCCCc1nnc(N)o1`, the logP was found to be 0.65.

`O=C(O)Cc1ccc(OCc2ccccc2)c(Br)c1` registered a log partition coefficient (logP) of 3.51.

With `CCOC(=O)C(=Cc1ccccc1Cl)C(=O)OCC`, the log partition coefficient (logP) amounted to 3.15.

In the case of `COc1cc(Cc2cnc(N)nc2N)ccc1C`, the logP came out at 2.14.

As to `COC12C(COC(N)=O)C3=C(C(=O)C(C)=C(Nc4ncc(C)s4)C3=O)N1CC1NC12` (stereo unspecified), the logP is 1.16.

As for `O=C(c1ccncc1)c1ccccc1O`, the logP turned out to be 2.13.

With `NNC(=O)c1ccc(Br)cc1`, the logP amounted to 1.28.

Turning to `CC(C)(C)c1cc(OC2OC(CO)C(O)C(O)C2O)cc(C(C)(C)C)c1` (stereo unspecified), the logP stood at 2.73.

Turning to `NS(=O)(=O)c1ccccc1Cl`, the lipophilicity (logP) came to 0.74.

Regarding `O=[N+]([O-])c1nccn1C1OC(CO)C(O)C(O)C1O` (stereo unspecified), the logP is -1.4.

The compound `COc1cc(CC(C)N)c(OC)cc1Br` (stereo unspecified) showed a logP of 2.58.

As for `Cc1c([N+](=O)[O-])cc(C(N)=O)cc1[N+](=O)[O-]`, the lipophilicity (logP) came to 0.68.

As for `CSC(C)=NOC(=O)N(C)SN(C)C(=O)c1cccc(C(F)(F)F)c1`, the logP worked out at 2.5.

`CON(C)C(=O)Nc1cccc(F)c1`: the logP was determined as 1.68.

`COc1ccc(Cc2cnc(N)nc2N)cc1C`: the logP was found to be 1.91.

On to `COCC(O)Cn1c([N+](=O)[O-])cnc1C` (stereo unspecified), for which the logP turned out to be 0.04.

With `COc1ccc(Cc2cnc(N)nc2N)cc1O`, the logP turned out to be 0.74.

`COc1cc(Cl)c(NC2=NCCN2)c(Cl)c1` registered a logP of 1.6.

In turn, `OCC1OC(Oc2ccccc2I)C(O)C(O)C1O` (stereo unspecified) yielded a log partition coefficient (logP) of 0.27.

`COCCOc1ccccc1OCCOC` registered a logP of 1.12.

`COc1ccc(NS(=O)(=O)C(F)(F)F)cc1` yielded a logP of 3.

In turn, `Cc1noc(-c2ccccn2)n1` returned a lipophilicity (logP) of 0.89.

In the case of `CN1C(=O)CN=C(c2c(Cl)cccc2Cl)c2cc(Cl)ccc21`, the logP was found to be 3.04.

In the case of `CC(=O)OCC1=C(C(=O)O)N2C(=O)[C@@H](NC(=O)CBr)[C@H]2SC1`, the lipophilicity (logP) was -0.7.

In turn, `COc1ccccc1NCC#N` displayed a lipophilicity (logP) of 1.3.

`Nc1nc(N)nc(-c2cccc(Br)c2)n1` yielded a logP of 2.44.

As to `CN(C)c1nc2ccccc2o1`, the logP was 2.1.

`CC(C)Oc1cn[nH]c1` yielded a logP of 1.13.

In turn, `C#CCOn1c(=O)[nH]c(C)c(Br)c1=O` registered a lipophilicity (logP) of -0.1.

Take `CCSC(=O)Oc1cccc2cccnc12`: the lipophilicity (logP) worked out at 2.74.

Consider `CON(C)C(=O)Nc1cccc(OCc2ccccc2)c1`, for which the logP was determined as 3.11.

As to `CCOC(=O)c1ccc2ncccc2c1`, the lipophilicity (logP) was determined as 2.64.

For `N#CCNc1ccccc1C(=O)O`, the logP turned out to be 1.8.

The compound `Cc1ccccc1-c1nc(N)nc(N)n1` registered a logP of 1.26.

The compound `COc1ccccc1N1C(=O)CCC1=O` registered a logP of -0.02.

As for `CN1CCN(C)C1=Nc1ncc([N+](=O)[O-])s1`, the logP amounted to 0.95.

`C=CCOCC(O)Cn1ccnc1[N+](=O)[O-]` (stereo unspecified) displayed a log partition coefficient (logP) of 0.4.

Take `COc1ccccc1C(=O)NCCCCN`: the logP turned out to be 0.58.

`Cc1ccccc1NC(=O)C1CNCCN1` (stereo unspecified) returned a logP of 0.26.

In turn, `CCCCCCNP(=O)(OC)SC` (stereo unspecified) yielded a log partition coefficient (logP) of 1.11.

`O=C(NC(CO)C(O)c1cccc([N+](=O)[O-])c1)C(Cl)Cl` (stereo unspecified): the logP came to 1.15.

The compound `CC12CCC(=O)C=C1C1(CC1)CC1C2CCC2(C)C1CCC21CCC(=O)O1` (stereo unspecified) came in with a log partition coefficient (logP) of 3.15.

`COc1cc(C)nc2ccccc12` gave a log partition coefficient (logP) of 2.81.

Take `COC12C(COC(N)=O)C3=C(C(=O)C(C)=C(Nc4nccs4)C3=O)N1CC1NC12` (stereo unspecified): the logP came out at 0.62.

Turning to `COc1ccc(CC(C)N)c(OC)c1` (stereo unspecified), the log partition coefficient (logP) amounted to 1.75.

On to `OC(CN1CCCC1)c1ccccc1` (stereo unspecified), for which the logP came out at 1.38.

`C[N+](C)(C)Cc1cccc(O)c1.[Br-]` displayed a logP of -2.4.

Consider `CCOP(=S)(OCC)SCS(=O)(=O)C(C)(C)C`, for which the logP was 2.48.

In turn, `CN(C)/N=N/c1[nH]ncc1C(N)=O` displayed a log partition coefficient (logP) of -0.12.

The compound `CCCCCCCCCCCCCCCC[n+]1cc(C)cc(C)c1.[I-]` had a logP of 3.35.

In turn, `Cc1cc(NC(=O)N(C)C)cc(C)c1Br` had a lipophilicity (logP) of 2.92.

In turn, `COc1cccc(NS(=O)(=O)C(F)(F)F)c1` had a log partition coefficient (logP) of 3.13.

Take `O=C(Nc1n[nH]c(NC(=O)C(F)(F)F)n1)C(F)(F)F`: the logP came to 0.62.

`CNc1ccc(C(=O)OCCN(C)C)cc1` returned a log partition coefficient (logP) of 1.95.

The compound `CC(C)n1nnc2ccccc21` came in with a logP of 1.98.

`O=C(O)CCCCCn1nnc2ccccc21` returned a logP of 0.86.

`O=C1CN=C(c2cccc(Br)c2)c2cc(Br)ccc2N1` showed a lipophilicity (logP) of 3.88.

Take `C[N+](C)(C)Cc1ccccn1.[Br-]`: the logP is -3.4.

Take `CSc1ccccc1C1=NCC(=O)Nc2ccc(Cl)cc21`: the logP came out at 2.99.

Consider `CCOC(=O)c1ccc2cccccc1-2`, for which the log partition coefficient (logP) was found to be 3.83.

`CC(=O)c1ccc2c(c1)C(c1ccccc1F)=NCC(=O)N2` gave a logP of 1.75.

Consider `CCOP(=O)(OCC)SCS(=O)CC` (stereo unspecified), for which the logP was determined as 1.78.

Consider `NC(=S)NN=Cc1cccc(O)c1`, for which the lipophilicity (logP) was 1.61.

The compound `CCCC(CO)n1cnc2c(N)ncnc21` (stereo unspecified) displayed a log partition coefficient (logP) of 0.66.

In the case of `COc1cc(Cc2cnc(N)nc2N)ccc1N`, the logP was 0.49.

In the case of `CCC(C)C(NC(C)=O)C(=O)NC` (stereo unspecified), the logP was determined as 0.14.

Compound `COC(=O)C(C#N)=NNc1c(Cl)cc(C(F)(F)F)cc1Cl` returned a log partition coefficient (logP) of 4.36.

For `CN(C)c1ccc(N(C)C)nn1`, the lipophilicity (logP) amounted to 0.99.

In turn, `CCOc1cc(Cc2cnc(N)nc2N)cc(OC)c1C(C)(C)O` showed a logP of 2.11.

Regarding `CCCCNc1ccccc1C(N)=O`, the lipophilicity (logP) worked out at 2.33.

`CC12CC3(C)CC(C)(C1)CC(N)(C2)C3` showed a logP of 4.01.

The compound `CCCCNc1nnc(C(C)C)c(=O)n1N` had a log partition coefficient (logP) of 1.78.

In the case of `O=[N+]([O-])c1ccc(/C=C/c2nnc[nH]2)o1`, the logP came to 1.1.

Turning to `CCC(=O)N(C)c1ccc(S(=O)(=O)N(C)C)cc1`, the logP came to 0.71.

Turning to `CC(=O)Nc1cc(OCC(=O)O)ccc1Cl`, the logP is 0.75.

In the case of `O=S1(=O)NC(C2CCCC2)=Nc2ccccc21`, the log partition coefficient (logP) was 1.83.
